Laboratory results as given in publication PMC3726599, “A Metabolically-Stabilized Phosphonate Analog of Lysophosphatidic Acid Attenuates Collagen-Induced Arthritis” (PLoS ONE, 2013).

Biological target: T1, plasma ATX/LysoPLD (Mus musculus, UniProt Q9R1E6)
T1 construct: from tissue; host or cells: mouse plasma / whole blood
Assay: Plasma ATX/lysoPLD activity ex vivo (TOOS assay, exogenous LPC)
Assay type: biochemical
Conditions: for IC50: TOOS
Protocol: ATX/LysoPLD activity was assessed based on the amount of choline released from LPC with the use of TOOS (N-ethyl-N-(2-hydoroxy-3-sulfopropyl)-3-methylaniline) reagent. In this assay ATX-mediated LPC-liberated choline is oxidised by choline oxidase to betaine and hydrogen peroxide (H2O2). The latter in the presence of horseradish peroxidase reacts with TOOS and 4-aminoantipyrene (4-AAP) to form a pink quinoneimine dye measured at 555 nm.
Diluted plasma samples (100 fold dilution; final EDTA concentration 0.5 mM) or recombinant ATX protein (2 nM) were incubated with LPC in the presence of 100 mmol/l Tris–HCl/pH 9.0, 500 mmol/l NaCl, 5 mmol/l MgCl2, 5 mmol/l CaCl2, 60 μM CoCl2 and 0.05% Triton X-100 for 3 h at 37°C at a final volume of 100 μl. It should be noted that EDTA was used not only as an anticoagulant but also as an inhibitor of ATX activity ex vivo [46], in order to suppress artificial LPA production during blood withdrawal and plasma preparation; this is because the same samples were used in phospholipid measurements.
The liberated choline was detected by adding 100 μl of a color mix containing 4-AAP and TOOS (0.3 mM), horseradish peroxidase (5.3 UnitmL^−1) and choline oxidase (2 UnitmL^−1). Absorbance was measured at 555 nm and data were analyzed using the statistical software package Prism 4.0 (Graphpad Software Inc, La Jolla, CA, USA). For each sample and control the absorbance was plotted against time and the slope (da/min) for the linear (steady-state) portion of each reaction profile was calculated. Absorbance units were converted to nmol of choline/min/ml by comparison with a choline standard curve or by use of the extinction coefficient for the quinoneimine dye according to the following equation: [drawing 1] Where Vt* is the total volume of reaction in ml (0.2 ml); Vs* is the volume of sample in ml; e is the millimolar extinction coefficient of quinoneimine dye under the assay conditions (e = e = […]); and 1/2: Factor based on the fact that 1 mol of hydrogen peroxide produces 1/2 mol of quinoneimine dye.
For in vitro inhibition measurements, BrP-LPA was dissolved in water as a stock solution (4 mM) and appropriate dilutions were made in water. The inhibition of ATX by BrP-LPA was measured employing 2 nM recombinant ATX, 50 μΜ LPC (14:0, 16:0, 18:0) and 0.01 to 100 μmol/L of BrP-LPA (final concentrations). The in vitro inhibition of ATX by BrP-LPA was evaluated with three different assays (FS-3, Amplex Red, and TOOS). […] BrP-LPA was also tested for its ability to inhibit mouse plasma ATX activity. Diluted mouse plasma was used as the source of ATX and the analysis of inhibition was made with TOOS as the in vitro inhibition assay.
The inhibition model (competitive, noncompetitive, or mixed type inhibition) was evaluated by graphical analysis with Lineweaver–Burk double reciprocal plots (1/[velocity] versus 1/[substrate]) and Cornish-Bowden plot ([substrate]/[velocity] versus [Inhibitor]). These plots were generated by the measurement of ATX activity in the presence of different BrP-LPA concentrations (0–10 μΜ) and increased amounts of 16:0 LPC (100, 200, 400 μΜ). The inhibition constants (Ki) and IC50 values were determined using the mean values obtained from two independent experiments. The relative remaining ATX activity or LPA levels in the presence of the BrP-LPA was expressed as a percentage of the corresponding control value (ATX activity, LPA levels without inhibitor). The IC50 value was determined graphically by plotting the log concentration of BrP-LPA versus relative remaining ATX activity or LPA levels of each test sample using the sigmoid dose–response fitting method (Prism® software). The IC50 (concentration of BrP-LPA sufficient to inhibit ATX activity or diminish LPA levels by 50%) was calculated by the equation f = y0+a/(1+exp(-(x-x0)/b)) given by SigmaPlot 11.0 (Systat Software, Inc., San Jose, CA, USA).

% Inhibition at 10 μΜ (14:0 LPC 50 μΜ): 28%
% Inhibition at 10 μΜ (16:0 LPC 50 μΜ): 58%
% Inhibition at 10 μΜ (18:0 LPC 50 μΜ): 70%
IC50 (exogenous 14:0 LPC 50 μΜ): > 10000 nM
IC50 (exogenous 16:0 LPC 50 μΜ): 2900 ± 300 nM
IC50 (exogenous 18:0 LPC 50 μΜ): < 100 nM
Structure (SMILES): CCCCCCCCCCCCCCCC(=O)OC[C@@H](O)CC(Br)P(=O)(O)O (stereo partly drawn) [BrP-LPA, 1-bromo-3(S)-hydroxy-4-(palmitoyloxy)butyl-phosphonate]
